Earlier results as cited in US6955812B2, “Health food and preparation having an anti-obesity effect” (Mitsubishi Heavy Industries, Ltd., priority 2001, dated 2005).

Tested on: HepG2 cells
Conditions: cultured HepG2 cells of a human liver model; from Japanese patent application No. 2000-202404

NC(CO)CS(=O)(=O)O [D-cysteinolic acid]
effect on neutral fat (triglyceride): greatly suppressing
